Activity calls are given as the source filed them. The calls are words filed in the database; no cut-off is given here.
How the values were obtained:
Variola virus [1] = test: (§1) Antiviral activity against 1X10'8 PFU Variola virus Harper infected in cynomolgus monkey assessed as percent hematocrit level in animal at 300 mg/kg/day, po administered immediately after infection followed by 5 ml/kg of 30% suspension of hydrated homogenized monkey biscuit measured 11 days post infection; assay type: functional
Variola virus [2] = test: (§2) Antiviral activity against 1X10'8 PFU Variola virus Harper infected in cynomolgus monkey assessed as temperature change in animal at 300 mg/kg/day, po administered 1 day post infection followed by 5 ml/kg of 30% suspension of hydrated homogenized monkey biscuit measured 11 days post infection; assay type: functional
Variola virus [3] = test: Antiviral activity against 1X10'8 PFU Variola virus Harper infected in cynomolgus monkey assessed as blood urea nitrogen level in animal at 300 mg/kg/day, po administered 3 days post infection followed by 5 ml/kg of 30% suspension of hydrated homogenized monkey biscuit measured 9 days post infection; assay type: functional
Monkeypox virus [4] = test: Antiviral activity against Monkeypox virus Zaire '79 infected in cynomolgus monkey assessed as log decrease in viral load at 300 mg/kg/day, po administered 72 hrs post infection measured after 14 days; assay type: functional
Variola virus [5] = test: Antiviral activity against 1X10'8 PFU Variola virus Harper infected in cynomolgus monkey assessed as percent hematocrit level in animal at 300 mg/kg/day, po administered 3 days post infection followed by 5 ml/kg of 30% suspension of hydrated homogenized monkey biscuit measured 9 days post infection; assay type: functional
Variola virus [6] = test: as §1, with “[…]” for “percent hematocrit”; assay type: functional
Monkeypox virus [7] = test: Antiviral activity against Monkeypox virus Zaire '79 infected in cynomolgus monkey assessed as survival of monkey at 300 mg/kg/day, po administered 72 hrs post infection followed by 5 ml/kg of 30% suspension of hydrated homogenized monkey biscuit measured after 14 days; assay type: functional, organism-based
Monkeypox virus [8] = test: Antiviral activity against Monkeypox virus Zaire '79 infected in cynomolgus monkey assessed as log decrease in viral load at 300 mg/kg/day, po administered 24 hrs post infection followed by 5 ml/kg of monkey biscuit measured after 14 days; assay type: functional
Variola virus [9] = test: (§3) Antiviral activity against 1X10'8 PFU Variola virus Harper infected in cynomolgus monkey assessed as platelet count in animal at 300 mg/kg/day, po administered immediately after infection followed by 5 ml/kg of 30% suspension of hydrated homogenized monkey biscuit measured 11 days post infection; assay type: functional
Variola virus [10] = test: as §2, with “inhibition of virus-mediated lesion formation” for “temperature change in animal”, “between day 5 to 8” for “11 days post infection”; assay type: functional, organism-based
Variola virus [11] = test: Antiviral activity against 1X10'8 PFU Variola virus Harper infected in cynomolgus monkey assessed as temperature change in animal at 300 mg/kg/day, po administered immediately after infection followed by 5 ml/kg of 30% suspension of hydrated homogenized monkey biscuit measured 11 days post infection; assay type: functional
Variola virus [12] = test: Antiviral activity against 1X10'8 PFU Variola virus Harper infected in cynomolgus monkey assessed as decrease in blood viral load at 300 mg/kg/day, po administered 1 day post infection followed by 5 ml/kg of 30% suspension of hydrated homogenized monkey biscuit measured up to 28 days; assay type: functional, organism-based
Variola virus [13] = test: (§4) Antiviral activity against 1X10'8 PFU Variola virus Harper infected in cynomolgus monkey assessed as creatinine level in animal at 300 mg/kg/day, po administered 1 day post infection followed by 5 ml/kg of 30% suspension of hydrated homogenized monkey biscuit measured 11 days post infection; assay type: functional
Variola virus [14] = test: Antiviral activity against 1X10'8 PFU Variola virus Harper infected in cynomolgus monkey assessed as total protein level in animal at 300 mg/kg/day, po administered 1 day post infection followed by 5 ml/kg of 30% suspension of hydrated homogenized monkey biscuit measured 11 days post infection; assay type: functional
Cynomolgus monkey [15] = test: Immunostimulatory activity in cynomolgus monkey infected with 1X10'8 PFU Variola virus Harper assessed as level of IgM at 300 mg/kg/day, po followed by 5 ml/kg of 30% suspension of hydrated homogenized monkey biscuit measured on day 7 by ELISA; assay type: functional, organism-based; details: Macaca fascicularis
Monkeypox virus [16] = test: Antiviral activity against Monkeypox virus Zaire '79 infected in cynomolgus monkey assessed as inhibition of virus induced skin lesions at 300 mg/kg/day, po administered 72 hrs post infection measured after 14 days; assay type: functional, organism-based
Variola virus [17] = test: (§5) Antiviral activity against 1X10'8 PFU Variola virus Harper infected in cynomolgus monkey assessed as blood urea nitrogen level in animal at 300 mg/kg/day, po administered 1 day post infection followed by 5 ml/kg of 30% suspension of hydrated homogenized monkey biscuit measured 11 days post infection; assay type: functional
Variola virus [18] = test: (§6) Antiviral activity against 1X10'8 PFU Variola virus Harper infected in cynomolgus monkey assessed as creatinine level in animal at 300 mg/kg/day, po administered 1 day post infection followed by 5 ml/kg of 30% suspension of hydrated homogenized monkey biscuit measured 9 days post infection; assay type: functional
Variola virus [19] = test: Antiviral activity against 1X10'8 PFU Variola virus Harper infected in cynomolgus monkey assessed as white blood cell count in animal at 300 mg/kg/day, po administered 3 days post infection followed by 5 ml/kg of 30% suspension of hydrated homogenized monkey biscuit measured 9 days post infection; assay type: functional
Monkeypox virus [20] = test: Antiviral activity against Monkeypox virus Zaire '79 infected in cynomolgus monkey assessed as survival of monkey at 300 mg/kg/day, po administered 24 hrs post infection followed by 5 ml/kg of 30% suspension of hydrated homogenized monkey biscuit measured after 14 days; assay type: functional, organism-based
Variola virus [21] = test: (§7) Antiviral activity against 1X10'8 PFU Variola virus Harper infected in cynomolgus monkey assessed as creatinine level in animal at 300 mg/kg/day, po administered immediately after infection followed by 5 ml/kg of 30% suspension of hydrated homogenized monkey biscuit measured 11 days post infection; assay type: functional
Variola virus [22] = test: as §4, with “alanine amino transferase” for “creatinine”; assay type: functional
Variola virus [23] = test: Antiviral activity against 1X10'8 PFU Variola virus Harper infected in cynomolgus monkey assessed as albumin level in animal at 300 mg/kg/day, po administered 1 day post infection followed by 5 ml/kg of 30% suspension of hydrated homogenized monkey biscuit measured 11 days post infection; assay type: functional
Variola virus [24] = test: as §7, with “aspartate amino transferase” for “creatinine”; assay type: functional
Variola virus [25] = test: (§8) Antiviral activity against 1X10'8 PFU Variola virus Harper infected in cynomolgus monkey assessed as log decrease in blood viral load at 300 mg/kg/day, po administered immediately post infection followed by 5 ml/kg of 30% suspension of hydrated homogenized monkey biscuit measured between day 5 to 8; assay type: functional
Variola virus [26] = test: as §7, with “total protein” for “creatinine”; assay type: functional
Monkeypox virus [27] = test: Antiviral activity against Monkeypox virus Zaire '79 infected in cynomolgus monkey assessed as inhibition of virus induced skin lesions at 300 mg/kg/day, po administered 24 hrs post infection measured after 14 days; assay type: functional, organism-based
Variola virus [28] = test: Antiviral activity against 1X10'8 PFU Variola virus Harper infected in cynomolgus monkey assessed as platelet count in animal at 300 mg/kg/day, po administered 1 day post infection followed by 5 ml/kg of 30% suspension of hydrated homogenized monkey biscuit measured 11 days post infection; assay type: functional
Variola virus [29] = test: Antiviral activity against 1X10'8 PFU Variola virus Harper infected in cynomolgus monkey assessed as log decrease in blood viral load at 300 mg/kg/day, po administered 1 day post infection followed by 5 ml/kg of 30% suspension of hydrated homogenized monkey biscuit measured between day 5 to 8; assay type: functional
Variola virus [30] = test: Antiviral activity against 1X10'8 PFU Variola virus Harper infected in cynomolgus monkey assessed as decrease in blood viral load at 300 mg/kg/day, po administered immediately post infection followed by 5 ml/kg of 30% suspension of hydrated homogenized monkey biscuit measured up to 28 days; assay type: functional, organism-based
Variola virus [31] = test: (§9) Antiviral activity against 1X10'8 PFU Variola virus Harper infected in cynomolgus monkey assessed as white blood cell count in animal at 300 mg/kg/day, po administered 1 day post infection followed by 5 ml/kg of 30% suspension of hydrated homogenized monkey biscuit measured 11 days post infection; assay type: functional
Variola virus [32] = test: Antiviral activity against 1X10'8 PFU Variola virus Harper infected in cynomolgus monkey assessed as platelet count in animal at 300 mg/kg/day, po administered 3 days post infection followed by 5 ml/kg of 30% suspension of hydrated homogenized monkey biscuit measured 9 days post infection; assay type: functional
Variola virus [33] = test: Antiviral activity against 1X10'8 PFU Variola virus Harper infected in cynomolgus monkey assessed as percent hematocrit level in animal at 300 mg/kg/day, po administered 1 day post infection followed by 5 ml/kg of 30% suspension of hydrated homogenized monkey biscuit measured 11 days post infection; assay type: functional
Cynomolgus monkey [34] = test: Immunostimulatory activity in cynomolgus monkey infected with 1X10'8 PFU Variola virus Harper assessed as level of IgG at 300 mg/kg/day, po followed by 5 ml/kg of 30% suspension of hydrated homogenized monkey biscuit measured on day 7 by ELISA; assay type: functional, organism-based; details: Macaca fascicularis
Variola virus [35] = test: Antiviral activity against 1X10'8 PFU Variola virus Harper infected in cynomolgus monkey assessed as […] level in animal at 300 mg/kg/day, po administered 1 day post infection followed by 5 ml/kg of 30% suspension of hydrated homogenized monkey biscuit measured 11 days post infection; assay type: functional
Variola virus [36] = test: as §7, with “alanine amino transferase” for “creatinine”; assay type: functional
Variola virus [37] = test: as §4, with “aspartate amino transferase” for “creatinine”; assay type: functional
Variola virus [38] = test: as §5, with “immediately after” for “1 day post”; assay type: functional
Variola virus [39] = test: as §3, with “mean corpuscular hemoglobin concentration” for “platelet count”; assay type: functional
Variola virus [40] = test: Antiviral activity against 1X10'8 PFU Variola virus Harper infected in cynomolgus monkey assessed as albumin level in animal at 300 mg/kg/day, po administered immediately after infection followed by 5 ml/kg of 30% suspension of hydrated homogenized monkey biscuit measured 11 days post infection; assay type: functional
Variola virus [41] = test: as §2, with “mean corpuscular hemoglobin concentration” for “temperature change”; assay type: functional
Variola virus [42] = test: as §8, with “inhibition of virus-mediated lesion formation” for “log decrease in blood viral load”; assay type: functional, organism-based
Variola virus [43] = test: Antiviral activity against 1X10'8 PFU Variola virus Harper infected in cynomolgus monkey assessed as platelet count in animal at 300 mg/kg/day, po administered 1 day post infection followed by 5 ml/kg of 30% suspension of hydrated homogenized monkey biscuit measured 9 days post infection; assay type: functional
Variola virus [44] = test: as §6, with “mean corpuscular hemoglobin concentration” for “creatinine level”; assay type: functional
Variola virus [45] = test: as §9, with “immediately after” for “1 day post”; assay type: functional
Variola virus [46] = test: Antiviral activity against 1X10'8 PFU Variola virus Harper infected in cynomolgus monkey assessed as survival of animal at 300 mg/kg/day, po administered 1 day post infection followed by 5 ml/kg of 30% suspension of hydrated homogenized monkey biscuit measured up to 28 days; assay type: functional, organism-based
Variola virus [47] = test: Antiviral activity against 1X10'8 PFU Variola virus Harper infected in cynomolgus monkey assessed as survival of animal at 300 mg/kg/day, po administered immediately post infection followed by 5 ml/kg of 30% suspension of hydrated homogenized monkey biscuit measured up to 28 days; assay type: functional, organism-based

`O=C(NN1C(=O)[C@@H]2[C@@H]3C=C[C@@H]([C@H]4C[C@@H]34)[C@@H]2C1=O)c1ccc(C(F)(F)F)cc1` [TECOVIRIMAT] showed an Activity (Variola virus [1]) of 44.3%, an Activity (Variola virus [2]) of 37.3 °C and an Activity (Variola virus [3]) of 10.7 mg/dL. It also gave an FC (Monkeypox virus [4]) of 5, an Activity (Variola virus [5]) of 35.9% and an Activity (Variola virus [6]) of 277 U/L. For the same molecule, the Activity (Monkeypox virus [7]) was “Active”, the FC (Monkeypox virus [8]) was 5 and the Activity (Variola virus [9]) was 329 ×10³ /uL. The inhibition (Variola virus [10]) was “Active”, the Activity (Variola virus [11]) was 38 °C and the Activity (Variola virus [12]) was “Active”. The Activity (Variola virus [13]) was 0.7 mg/dL, the Activity (Variola virus [14]) was 6.43 g/dL and the Activity (Cynomolgus monkey [15]) was “Active”. The Activity (Monkeypox virus [16]) was “Active”, the Activity (Variola virus [17]) was 18.7 mg/dL and the Activity (Variola virus [18]) was 0.9 mg/dL. The Activity (Variola virus [19]) was 12.3 ×10³ /uL, the Activity (Monkeypox virus [20]) was “Active” and the Activity (Variola virus [21]) was 0.73 mg/dL. The Activity (Variola virus [22]) was 60.3 U/L, the Activity (Variola virus [23]) was 2.9 g/dL and the Activity (Variola virus [24]) was 55 U/L. The FC (Variola virus [25]) was 3, the Activity (Variola virus [26]) was 6.37 g/dL and the Activity (Monkeypox virus [27]) was “Active”. The Activity (Variola virus [28]) was 341 ×10³ /uL, the FC (Variola virus [29]) was 3 and the Activity (Variola virus [30]) was “Active”. It also gave an Activity (Variola virus [31]) of 7.5 ×10³ /uL, an Activity (Variola virus [32]) of 406 ×10³ /uL and an Activity (Variola virus [33]) of 49.6%. The Activity (Cynomolgus monkey [34]) was “Active”, the Activity (Variola virus [35]) was 141 U/L and the Activity (Variola virus [36]) was 49.7 U/L. It also gave an Activity (Variola virus [37]) of 58 U/L, an Activity (Variola virus [38]) of 19 mg/dL and an Activity (Variola virus [39]) of 31.7 g/dL. For the same molecule, the Activity (Variola virus [40]) was 2.47 g/dL, the Activity (Variola virus [41]) was 31.1 g/dL and the inhibition (Variola virus [42]) was “Active”. For the same molecule, the Activity (Variola virus [43]) was 350 ×10³ /uL, the Activity (Variola virus [44]) was 30.9 g/dL and the Activity (Variola virus [45]) was 8.2 ×10³ /uL. The Activity (Variola virus [46]) was “Active” and the Activity (Variola virus [47]) was “Active”.

Source: ChEMBL document CHEMBL1649471, “Nonhuman primates are protected from smallpox virus or monkeypox virus challenges by the antiviral drug ST-246” (2009)
